We go through one compound from patent US8158623B2, “Heptacyclic compounds and the pharmaceutical uses thereof for preventing and treating diabetes and metabolic syndrome” (Shanghai Institute of Materia Medica Chinese Academy of …, priority 2007, dated 2012).

The test system of one assay is 3T3-L1 adipocytes. Description: Glucose uptake in 3T3-L1 adipocytes (3H-labelled 2-deoxyglucose). It counts as cell-based. An outline of the steps:
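Differentiated 3T3-L1 adipocytes treated with compound at 10 μM for 2 h, with or without insulin. Baseline and insulin-stimulated uptake measured as intracellular 3H-labelled 2-deoxyglucose; increase calculated relative to 0.1% DMSO control.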

Assay [1] has as its system Acetyl CoA Carboxylase (ACC). As to the kind of experiment: Phosphorylation of ACC in HepG2 cell (Western blot). Type of assay: cell-based, Human. The note with it: HepG2, 50 uM, 5 minutes, P<0.01 or P<0.05. An outline of the steps: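 HepG2 cells were serum-starved 6 h in MEM with 0.5% BSA, then treated with compound at 50 uM final (0.25% DMSO) for 5 min, with DMSO as control. Lysates (15 μg/lane) were immunoblotted for phospho-AMPK and phospho-ACC with ECL detection. Band grey levels, normalized to an internal standard, are expressed relative to the normal group set as 1.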
Background: In western blotting, separated proteins are transferred to a membrane and probed.

The subject of assay [2] is diet-induced obese (DIO) mice. Description: Effect of F7 on body weight of diet-induced obese mice. The note with it: for Body weight: oral 50 mg/kg daily; for Body weight reduction compared with the model control group: oral 50 mg/kg. Type of assay: in vivo, C57BL/6J mice. The protocol: Male C57BL/6J mice were maintained a SPF facility (temperature: 22-24° C., humidity: 45-80%, illumination: 150-300 Lx, 12/12-hour light/dark cycle). When the mice were 4 weeks old, they were fed with a high-fat diet (purchased from Research Diets Inc. (USA), D12492i, fat content is 60%). After 12 weeks, diet-induced obese (DIO) mice model was established. Another group of mice fed with normal diet (D12450Bi, fat content is 10%) was used as a normal control group. The DIO mice were divided into two group according to body weights, and administrated orally F7 (50 mg/kg) or 0.1% Tween80 (the model control group) respectively, every afternoon just before black out for 5 weeks. The body weights of mice were measured daily, and the effect of Compound F7 on body weight was observed.

As for `COc1cc(C(=O)O)c2c(c1C)OC(=O)c1c(C)cc(O)c(C=O)c1O2` [Compound F7, 4-Formyl-3-hydroxy-8-methoxy-1,9-dimethyl-11-oxo-11H-dibenzo[b,e][1,4]dioxepine-6-carboxylic acid], the “Glucose uptake, Mean, Compound + Insulin Group (Control Group = 1.000)” value in the assay with 3T3-L1 adipocytes (10 μM, 2 h incubation, with insulin, relative to control without insulin) is on record as 3.788. Besides, the fold induction at 10 µM in the assay with 3T3-L1 adipocytes (Mus musculus, 3T3-L1, 2 h incubation, baseline (without insulin), relative to control, read-out: Glucose uptake, Mean, Compound Group (Control Group = 1.000)) stood at 1.19. Also, in assay [1], the “Level of phosphorylation for ACC protein versus DMSO control” value is given as “improved significantly”. In addition, the Body weight in assay [2] (0 day) was found to be 39.2 ± 3.8 g; in assay [2] (7 day), 36.4 ± 3.8 g; in assay [2] (14 day), 36.5 ± 4.2 g; in assay [2] (21 day) it was 36.2 ± 3.9 g; in assay [2] (28 day) it was 36.1 ± 2.6 g; in assay [2] (35 day), 35.8 ± 2.0 g. Moreover, the “Body weight reduction compared with the model control group” value in assay [2] (1 week after administration) is 2 g; in assay [2] (5 weeks after administration) it was 4.5 g.
